Entries after “also recorded” stand apart in the source; their conditions may differ.
What was measured:
[1] = Chrom logD determination (fast-gradient HPLC); settings: pH 7.4
Experimental: The distribution coefficient Chrom logD, a parameter used to assess the lipophilicity of compounds [36, 37], was determined for novel purine and purine isosteres with a ferrocene motif as shown in Table 1.
The distribution coefficient, Chrom logD, was determined from compounds’ gradient retention times by employing a high-performance liquid chromatography method with fast acetonitrile gradient. Compounds were prepared for analysis in final concentration of 1.25 mM by dilution of 10 mM stock solutions in DMSO with acetonitrile. Aqueous mobile phase was 50 mM ammonium acetate adjusted with ammonia solution to pH 7.4 and the organic mobile phase was acetonitrile. A reversed phase HPLC column Luna C18, 50 × 3 mm i.d., 5 µm particle size (Phenomenex, Torrance, CA, USA) was used for analysis. Sample injection volume was 2 µL and the flow rate was 1 mL min^−1. All compounds were analysed in duplicates. Fast-gradient elution was as follows: from 0 to 100% of acetonitrile (0−3 min), 100% of acetonitrile (3.0−3.5 min), from 100 to 0% of acetonitrile (3.5−3.7 min), and re-equilibration with 100% of aqueous mobile phase (3.7−5.0 min). All measurements were performed on an HPLC-DAD instrument Agilent 1100 Series (Agilent Technologies, Santa Clara, CA, USA) coupled with a mass spectrometer Micromass Quattro API (Waters, MA, USA). MassLynx software, version 4.1 (Waters, Manchester, UK) was used for data acquisition and processing. Before compound analysis, a calibration step was performed. A set of standard compounds with literature CHI values [36] were plotted against gradient retention times to obtain a calibration equation, which was used to determine CHI value from the compounds’ retention times.

[2] = Metabolic stability in mouse liver microsomes; assay type: in vitro ADME; settings: for t1/2: mouse liver microsomes, 1 µM; for In Vivo CLh / In Vivo CLh (% LBF): mouse; for In Vivo CLh: predicted in vivo hepatic clearance; for In Vivo CLh (% LBF): predicted, % of liver blood flow
Experimental: Metabolic stability of compounds was assessed in human and mouse liver microsomes (Corning, Tewksbury, MA, USA). Compounds, in final concentration of 1 µM, were incubated in phosphate buffer (50 mM, pH 7.4) for 60 min at 37 °C together with liver microsomes and NADPH generating system (nicotinamide adenine dinucleotide phosphate (NADP, 0.5 mM), glucose-6-phosphate (G6P, 5 mM), glucose-6-phosphate dehydrogenase (1.5 U mL^−1) and magnesium chloride (0.5 mM)). Also, compounds were incubated without the presence of NADPH cofactor, as a buffer stability control. Metabolic activity of liver microsomes was verified by including testosterone and propranolol as positive controls, as well as caffeine as a negative control. Sampling was performed at six time points (0, 10, 20, 30, 45 and 60 min), followed by reaction termination by addition of acetonitrile/methanol mixture (2:1, v/v) containing dicofenac as internal standard. Samples were analyzed as previously described for samples from permeability assay. The in vitro half-life (t1/2) was calculated from the slope of the linear regression by plotting ln % remaining of parent compound against incubation time. In vitro intrinsic clearance, CLint was calculated from half-life using following Equation (3):(3) CLint [µL min^−1 mg^−1]=ln2/t1/2×mL per incubation/mg protein per incubation where 52.5 mg protein/g liver is used as a constant.
Predicted in vivo hepatic clearance, in vivo CLh was calculated as follows:(4) in vivo CLh [mL min^−1 kg^−1]=CLint×(mg protein/g liver)×Q×(LW/BW) /Q+(CLint×(mg protein/g liver)×(LW/BW)) where: LW/BW = liver weight/body weight [g kg^−1]; 25.7 (human), 87.5 (mouse); Q = LBF = liver blood flow [mL min^−1 kg^−1]; 21/1.26 (human), 131/7.86 (mouse).
Predicted in vivo hepatic clearance can be expressed as %LBF and calculated as follows:(5) in vivo CLh [%LBF]=in vivo CLh/LBF×100

[3] = test system: MDCKII-hMDR1 cells; assay: Permeability and P-gp substrate assessment in MDCKII-hMDR1 cell monolayer; assay type: in vitro ADME, canine; settings: for Permeability classification: MDCKII-hMDR1, in words; for Efflux Ratio (BA/AB) / Papp (AB) / Papp (BA): without P-gp inhibitor; for Papp (AB) / Papp (BA): 10 µM, 60 min
Experimental: The Madin-Darby canine kidney cells with overexpressed human multidrug-resistant gene (MDCKII-hMDR1) have been frequently used to study bidirectional transport of compounds and assess P-gp substrate potential. Apparent permeability (Papp) values were determined from the amount permeated through the MDCKII-hMDR1 cell monolayer in both the apical-basolateral (AB) and basolateral-apical (BA) direction.
MDCKII-hMDR1 cell monolayer was used for determination of permeability and P-gp substrate assessment. MDCKII-hMDR1 cells (Solvo Biotechnology, Szeged, Hungary) were grown in the controlled atmosphere (37 °C, 95% humidity, 5% CO2) in MDCK cell culture medium containing Dulbecco’s Modified Eagle Medium (DMEM) + 10% Fetal bovine serum (FBS, inactivated) + 1% glutamax-100 + 1% antibiotic/antimycotic + 1% of Non-essential amino acids Minimum Essential Medium (MEM NEAA). Cultures were split every 3–4 days using 0.05% Trypsin-EDTA. Cells were seeded 4 days prior to the experiment in concentration of 0.3 × 10^6 cells mL^−1 and cultured in CO2 incubator. On the experiment day, cell monolayers were washed with Dulbecco’s phosphate buffer saline (D-PBS) and equilibrated for 45 min in CO2 incubator in D-PBS containing 1% DMSO (1% v/v) with or without Elacridar (2 µM). Compounds, in final concentration of 10 µM, were prepared in transport medium containing Lucifer yellow (100 µM), with DMSO contentment of 1% (v/v) and in the presence and without Elacridar. Lucifer yellow calibration curve was prepared by serial dilution (12 points, with 100 µM as the highest point). Monolayer integrity was examined by fluorescent measurement on a Microplate reader Infinite F500 (Tecan) by using an excitation of 485 nm and emission of 530 nm. Experiment was started by applying the solutions containing test compounds to apical and basolateral side of the cell monolayer. Starting compound concentration (C0) was sampled at the start of the experiment and apical and basolateral compartments were sampled after incubation at 37 °C with gentle shaking for 60 min. Compound were tested in duplicate. Amprenavir was used as a control with low permeability and as a P-gp substrate without inhibitor presence, turning into a highly permeable compound with the inhibitor present.
Samples were analyzed on an ABSciex API 4000 Triple Quadrupole Mass Spectrometer (Sciex, Division of MDS Inc., Toronto, ON, Canada) coupled to a UHPLC Nexera X2 (Shimadzu, Kyoto, Japan). Samples (1 µL) were injected onto a reversed phase HPLC column Luna Omega Polar C18, 30 × 2.1 mm i.d., 1.6 µm particle size (Phenomenex) which was kept at 50 °C. Aqueous solution was 0.1% formic acid in deionized water and the organic mobile phase was […]. Flow rate was kept at 0.7 mL min^−1 for all measurements. Fast-gradient elution was as follows: 2% of organic mobile phase through 0.15 min, from 2 to 95% of organic mobile phase (0.15−0.7 min), 95% of organic mobile phase (0.7−1.1 min), from 95 to 2% of organic mobile phase (1.1−1.11 min), and re-equilibration with 98% of aqueous mobile phase (1.11−1.5 min). Positive ion mode with turbo spray, an ion source temperature of 550 °C and a dwell time of 75 ms were utilized for mass spectrometric detection. Quantitation was performed using multiple reaction monitoring (MRM) at the specific transition corresponding to the compound of interest. Warfarin was used as an internal standard. The ratios between compound and internal standard peak areas were used instead of real compound concentration. Apparent permeability coefficient, Papp (nm s^−1) values were calculated by using the following Equation (1):Papp [nm s^−1] = (dQ/dT) × (1/C0) × (1/A)(1) where: dQ/dT = permeability rate; C0 = initial concentration in donor compartment; A = surface area of the cell monolayer (0.7 cm^2). […]

| Compound | Chrom logD [1] | t1/2 [2] | In Vivo CLh [2] | In Vivo CLh (% LBF) [2] | Permeability classification [3] | Efflux Ratio (BA/AB) [3] | Papp (AB) [3] | Papp (BA) [3] |
| --- | --- | --- | --- | --- | --- | --- | --- | --- |
| Clc1ncnc2c1ccn2Cc1cn(-[c-]2cccc2)nn1.[Fe+2].c1cc[cH-]c1 [Compound 11c, 4-Chloro-7-[1-(1-ferrocenyl-1,2,3-triazol-1-yl)methyl]-7H-pyrrolo[2,3-d]pyrimidine] | 5.62 | 1.3 min | 1.54 L/h/kg | 99 % LBF | moderate AB permeability | 2.9 | 53 nm/s | 149 nm/s |
| Clc1ncnc2c1ncn2Cc1cn(C[c-]2cccc2)nn1.[Fe+2].c1cc[cH-]c1 [Compound 13a, 6-Chloro-9-[1-(1-ferrocenymethyl-1,2,3-triazol-4-yl)methyl]-9H-purine] | 4.27 | 5.5 min | 1.51 L/h/kg | 98 % LBF | moderate to high AB permeability; also recorded: good permeability | 2.9 | 83 nm/s | 238 nm/s |
| CC([c-]1cccc1)n1cc(Cn2cnc3ncnc(Cl)c32)nn1.[Fe+2].c1cc[cH-]c1 (stereo not drawn) [Compound 15b, 6-Chloro-7-[1-(1-ferrocenyl-1-methylmethyl-1,2,3-triazol-4-yl)methyl]-7H-purine] | 4.15 | 2.9 min | 1.52 L/h/kg | 99 % LBF | moderate AB permeability | 10.7 | 32 nm/s | 332 nm/s |

From article PMC7180452, “Purine and Purine Isostere Derivatives of Ferrocene: An Evaluation of ADME, Antitumor and Electrochemical Properties” (Molecules, 2020)
